Test results taken from US10960037B2, “Method of treating neurological conditions with extract of Nerium species or Thevetia species” (PHOENIX BIOTECHNOLOGY, INC., priority 2010, dated 2021).
“Also recorded” adds a separate entry of the source.

How the values were obtained:
[1] = system: ARE target genes Gclm, Nqo1, Srx, Hmox1; test: ARE target gene expression by qPCR, rat co-cultures; format: cell-based; details: for expression of ARE target genes: 6 h
Description: FIG. 17 depicts the results of expression assays for Fraction 0-4 and the individual triterpenes oleanolic acid, ursolic acid, betulinic acid and uvaol. “X” symbols denote concentrations of compounds which induced toxicity and for which recovery of residual mRNA was insufficient to support qPCR analysis. Rat primary corticostriatal co-cultures were treated for 6 h with Fraction 0-4 (in μg/ml) or oleanolic acid, ursolic acid, betulinic acid, or uvalol (all in μM) at the concentrations indicated, then harvested and processed for qPCR analysis of the ARE target genes shown. Quantitative RNA values were normalized to the GAPDH reference control and fold-expression changes are expressed relative to the DMSO-carrier only condition (“--”) set to a value of 1. Dark bars denote statistically significant differences with respect to the DMSO-carrier only control by a Student's t-test at p<0.05.
FIG. 18 depicts the results of expression assays for Fraction 0-4 and the individual triterpenes ursolic acid and betulinic acid at more similar concentration ranges. Rat primary corticostriatal co-cultures were treated for 6 h with Fraction 0-4 (in μg/ml) or ursolic acid and betulinic acid (in μM) at the concentrations indicated, then harvested and processed for qPCR analysis of the ARE target genes shown. Quantitative RNA values were normalized to the GAPDH reference control and fold-expression changes are expressed relative to the DMSO-carrier only condition (“--”) set to a value of 1. Dark blue bars denote statistically significant differences with respect to the DMSO-carrier only control by a Student's t-test at p<0.05.
For qPCR quantification of ARE target gene expression levels, cortical and striatal neurons were plated onto 96-well plates containing mature glial cultures and cultured for 96 h. Fraction 0-4 was added to cultures at the indicated concentrations for 6 h. At the end of the treatment period, cells were lysed and total RNA was isolated using Absolutely RNA mini-prep kits (Agilent Technologies/Stratagene). cDNA was generated using oligo dT primers and Superscript II reverse transcriptase (Invitrogen). Resulting cDNA was used for quantitative PCR of gene transcripts using SYBR Green Real-Time PCR Master Mix (Life Technologies) and the following mouse primers, for: Gclc (forward-5′ […]-3′ and reverse-5′-[…]-3′), Nqo1 (forward-5′-GCCCGCATGCAGATCCT-3′ and reverse 5′-[…]3′), Srx (forward-5′-[…]-3′ and reverse-5′-[…]-3′), and Hmox1 (forward-5′-[…]-3′ and reverse-5′-[…]-3′) (Integrated DNA Technologies). […] Each biological sample was measured in triplicate on a ViiA 7 real-time PCR instrument (Applied Biosystems); fold expression was calculated after normalization to corresponding control GAPDH levels.

[2] = system: healthy cortical pyramidal neurons in brain slices subjected to OGD; test: Brain slice-based oxygen-glucose deprivation (OGD) "stroke" neuroprotection assay; format: cell-based, Sprague-Dawley rat; details: result in words
Description: Example 8 provides a detailed description of an in vitro assay used to evaluate the efficacy of the extract, or fraction thereof, or composition thereof, for the treatment of stroke-mediated ischemic neuronal injury. The assay is a brain slice-based assay for oxygen and glucose deprivation (OGD) used to induce 50% loss of healthy cortical neurons by 24 hours. The parent unfractionated SCF extract of Nerium species, e.g. Nerium oleander, is used as a positive control. The parent extract is then fractionated according to Example 13 to provide a fraction of extract of Nerium species. The fractions are analyzed according to Examples 6, 14 and 17.
Neocortical brain slices were prepared from PND 7 Sprague-Dawley rat pups. The cerebral cortex was dissected, cut into 400-μ-thick slices and transferred into a container containing cold artificial cerebrospinal fluid with 1 μM MK-801 before plating; MK-801 was not included in any subsequent procedures. To mimic ischemic injury using transient oxygen-glucose deprivation (OGD), slices from one hemisphere of each brain were exposed to glucose-free, N2-bubbled artificial cerebrospinal fluid for 7.5 min in a low 02 (0.5%) environment. The OGD slices were then plated side-by-side with control slices from the contralateral hemisphere on nitrocellulose or Millicell (Millipore) permeable membranes, which were prepared identically except for no OGD. Thirty minutes after plating, the brain slice pairs were transfected, transferred to 24-well plates, and incubated at 37° C. under 5% CO2 in humidified chambers. In each experiment, 5-6 minutes of oxygen-glucose deprivation (OGD) was used to induce >50% loss of healthy cortical neurons by 24 hrs. A set concentration (3 μM) of neriifolin (a cardiac glycoside) was used as the internal positive control. […] A neuroprotective composition can be used as described herein for oleandrin.
Coronal brain slices (250 μm thick) were prepared from postnatal day 10 Sprague-Dawley rat pups of either gender (Charles River) and established in organotypic culture. Animals were sacrificed in accordance with NIH guidelines and under Duke IACUC approval and oversight. […]
(§1) For all brain slice assays, numbers of healthy pyramidal neurons in the cortical regions of each brain slice were imaged on a Leica MZIIIFL fluorescence stereomicroscope. Cortical pyramidal neurons were readily identified by their characteristic positions and orientations in the cortical plate, and by their prominent extension of a single, apical dendrite radially towards the pial surface. […]

[3] = system: cortical neurons in "non-OGD" brain slices; test: Non-stroke (non-OGD) brain slice assay; format: cell-based, Sprague-Dawley rat; details: sliced and YFP-transfected, no OGD
Description: Neuroprotective composition, oleandrin, PBI-05204 (an unfractionated SCF extract of Nerium oleander) or a fraction of the extract (PBI-04711) were tested on “nonstroked” brain slices; that is, ones that were sliced and transfected with YFP but not subjected to additional trauma via OGD. See experimental procedure outlined above.

[4] = system: cortical and striatal neurons transfected with mutant htt; test: Cortico-striatal co-culture "Huntington's disease" assay; format: cell-based
Text: Example 10 provides a detailed description of an assay used to evaluate the efficacy of the extract (or fraction thereof) for the treatment of Huntington's disease. Mutant htt protein is introduced via electroporation into high-density, mixed co-cultures of cortical neurons, striatal neurons, and glia. The striatal and cortical neurons are transfected with different color fluorescent proteins thereby facilitating the separate identification of the different types of neurons in the co-culture. The color fluorescent proteins are fluorescent and ‘emit’ color upon activation with a light source of appropriate wavelength. […] Such other agents can be used along with or in the absence of oleandrin or other cardiac glycoside.
In this assay, instead of using intact brain slices, mutant htt is introduced via electroporation into high-density, mixed co-cultures of cortical neurons, striatal neurons, and glia arrayed in 96-well plates. […] In this assay, over the course of 1-2 weeks in vitro, transfected mutant htt constructs induce the progressive degeneration of both striatal and cortical neurons that are subsequently quantified using automated image acquisition and object detection algorithms on the Cellomics Arrayscan VTI platform. […] In a full run, some 25,000 images are collected and analyzed in each cycle, 4 cycles per week. […]

[5] = system: cortical pyramidal neurons in APP-transfected brain slices; test: Brain slice APP/Aβ-induced degeneration "Alzheimer's" assay; format: cell-based, rat; details: result in words
Text: Example 9 provides a detailed description of an in vitro assay used to evaluate the efficacy of the extract for the treatment of Alzheimer's disease. The assay is a brain slice-based assay for APP/Aβ-induced (APP: amyloid precursor protein) degeneration of cortical pyramidal neurons. Upon cleavage by a secretase enzyme, the APP is reduced to Aβ peptides which are believed to be a causative factor in beta-amyloid plaque formation. Aβ proteins are associated with beta-amyloid plaque formation and are believed to be a hallmark if not etiologic factor in Alzheimer's disease. […]
The APP-WT brain slice-based Alzheimer's assay was repeated (Example 11) using fractions of the SCF extract of Nerium oleander. The number of healthy cortical neurons was determined following APP/Aβ-induced degeneration in the presence of varying amounts of fraction 0-4A of the SCF extract (0.01 to 100 μg/ml). […]
as §1

## C[C@H]1[C@H](C)CC[C@]2(C(=O)O)CC[C@]3(C)C(=CC[C@@H]4[C@@]5(C)CC[C@H](O)C(C)(C)[C@@H]5CC[C@]43C)[C@H]12 [Ursolic acid, ursolic acid]
[1]
  expression of ARE target genes: robust upregulation of canonical ARE target genes; also recorded: clear upregulation of Srx and Hmox1
[1]; listed as UA
  expression of ARE target genes: due more so to the activity of UA than of OA or BA
[2]; listed as UA
  neuroprotection in brain slice OGD assay: lower activity; also recorded: rise and fall in activity as concentration is increased

## CO[C@H]1[C@H](O)[C@H](O[C@H]2CC[C@@]3(C)[C@H](CC[C@@H]4[C@@H]3CC[C@]3(C)[C@@H](C5=CC(=O)OC5)CC[C@]43O)C2)O[C@@H](C)[C@@H]1O [neriifolin]
[3]
  neuroprotection of non-OGD brain slices: modest levels of neuroprotection

## CO[C@H]1C[C@H](O[C@H]2CC[C@@]3(C)[C@H](CC[C@@H]4[C@@H]3CC[C@]3(C)[C@@H](C5=CC(=O)OC5)[C@@H](OC(C)=O)C[C@]43O)C2)O[C@@H](C)[C@@H]1O [Oleandrin, oleandrin]
[4]; FIGS. 3A-3D
  potency relative to KW6002: ~100 fold
[4]; result in words
  efficacy (surviving neurons) in cortico-striatal co-culture assay: more effective than KW6002; also recorded: strongest hits; also recorded: on par with KW6002
[5]
  neuroprotection in APP brain slice assay: concentration-dependent neuroprotection

## CC1(C)CC[C@]2(C(=O)O)CC[C@]3(C)C(=CC[C@@H]4[C@@]5(C)CC[C@H](O)C(C)(C)[C@@H]5CC[C@]43C)[C@@H]2C1 [Oleanolic acid, oleanolic acid]
[1]
  expression of ARE target genes: robust upregulation of canonical ARE target genes
[2]
  cellular toxicity: not exhibited observable cellular toxicity
  neuroprotection in brain slice OGD assay: robust neuroprotection
[2]; listed as OA
  neuroprotection in brain slice OGD assay: accounts for a majority of the neuroprotective activity; also recorded: substantially higher activity than UA

## C=C(C)[C@@H]1CC[C@]2(C(=O)O)CC[C@]3(C)[C@H](CC[C@@H]4[C@@]5(C)CC[C@H](O)C(C)(C)[C@@H]5CC[C@]43C)[C@@H]12 [Betulinic acid, betulinic acid]
[1]
  toxicity in co-cultures: toxicity at higher concentrations
